Laboratory results from ChEMBL document CHEMBL4811309, “Design, synthesis and antiproliferative activity of novel 2,4-diamino-5-methyleneaminopyrimidine derivatives as potential anticancer agents” (Bioorg Med Chem Lett, 2021).

Legend:
Format in all cases: functional, cell-based
MCF7 = assay: Antiproliferative activity against human MCF7 cells assessed as reduction in cell viability by MTT assay
HCT-116 = assay: Antiproliferative activity against human HCT-116 cells assessed as reduction in cell viability by MTT assay
HeLa = assay: Antiproliferative activity against human HeLa cells assessed as reduction in cell viability by MTT assay
HT-29 = assay: Antiproliferative activity against human HT-29 cells assessed as reduction in cell viability by MTT assay

SMILES	IC50 (MCF7) [µM]	IC50 (HCT-116) [µM]	IC50 (HeLa) [µM]	IC50 (HT-29) [µM]
C(=N\c1cnc(Nc2ccc(N3CCOCC3)cc2)nc1NC1CCCC1)/c1ccccc1	> 100	> 100	> 100	67.6
NS(=O)(=O)c1ccc(Nc2ncc(/N=C/c3ccccc3)c(NC3CCCC3)n2)cc1	39.1	26.1	15.6	27
FC(F)(F)c1ccc(/C=N/c2cnc(Nc3ccc(N4CCOCC4)cc3)nc2NC2CCCC2)cc1	> 100	97.2	> 100	> 100
CCOC(=O)/C=N/c1cnc(Nc2ccc(N3CCOCC3)cc2)nc1NC(C)C	15.2	23.7	27.7	19.6
NS(=O)(=O)c1ccc(Nc2ncc(/N=C/c3cccs3)c(NC3CCCC3)n2)cc1	23	13.3	10.9	9.95
CC(C)Nc1nc(Nc2ccc(S(N)(=O)=O)cc2)ncc1/N=C/c1ccccc1	> 100	> 100	> 100	98.2
CN1CCN(c2ccc(Nc3ncc(/N=C/c4cccs4)c(NC4CCCC4)n3)cc2)CC1	33.9	18.9	25.7	21.7
CC(C)Nc1nc(Nc2ccc(S(N)(=O)=O)cc2)ncc1/N=C/c1ccc(C(F)(F)F)cc1	> 100	> 100	> 100	> 100
CC(C)Nc1nc(Nc2ccc(S(N)(=O)=O)cc2)ncc1/N=C/c1cccs1	50.2	82.1	> 100	> 100
CC(C)Nc1nc(Nc2ccc(N3CCOCC3)cc2)ncc1/N=C/c1cccs1	> 100	14.8	> 100	25.3
CCOC(=O)/C=N/c1cnc(Nc2ccc(N3CCN(C)CC3)cc2)nc1NC(C)C	12.3	13.6	11.5	7.59
CC(C)Nc1nc(Nc2ccc(N3CCN(C)CC3)cc2)ncc1/N=C/c1cccs1	91	> 100	77.1	> 100
CN1CCN(c2ccc(Nc3ncc(/N=C/c4ccccc4)c(NC4CCCC4)n3)cc2)CC1	> 100	35.2	> 100	28.6
